Data on 7 compounds can be found in patent publication US20250179108A1, “UTILITY OF NEMATODE SMALL MOLECULES” (California Institute of Technology, priority 2011, published 2025).

Entries after “also recorded” stand apart in the source; their conditions may differ.

For one experiment, the system named is P. redivivus males. Nature of the experiment: Attraction assay, Panagrellus redivivus males. It counts as in vivo. The procedure: (§1) FIG. 1A depicts, in accordance with an embodiment herein, a chemoattraction assay to reveal a gender specific mate finding cue in Panagrellus redivivus. A transparent template is attached below a 5-cm plate with a 16-mm bacterial lawn to delineate two scoring regions into which 0.6μL of the experimental sample and control sample are placed. Ten P. redivivus males are placed at points equidistant from the two scoring regions and the plate is recorded for 20 minutes (at a rate of 1 frame per second).
(§2) FIG. 1B depict attraction measured using software that computes the ratio of worm-pixels to total pixels for each scoring region.
(§3) FIG. 1C that the output is a plot of worm occupancy ratio vs. time for both scoring regions. The shown graph indicates strong attraction of P. redivivus males to the experimental sample. FIG. 2A depicts, in accordance with an embodiment herein, purification of the female sex pheromone in Panagrellus redivivus.
OP50 E. coli is grown on a standard 5 cm agar plate (made with standard Nematode Growth Medium). The bacterial lawn is 16 mm in diameter and is grown overnight at 20C before being used in trials. Two 4-mm spots ([…]) were placed on opposite sides of the bacterial lawn (using a transparent template to guide spot placement) and several minutes elapsed for the liquid to settle in before placing nematodes down on the assay. Recording began immediately upon worm placement. […] Trials were recorded for 20 minutes and frames were collected for analysis at 1 frame per second. […]
(§4) A video camera attached to the microscope produces a digital video stream, which is then analyzed. The ratio of time the average worm spends in each region of interest is calculated for every trial. […] Thus, worm pixels were counted instead of whole worms, allowing the inventors to take into account fractions of a worm in the region of interest. It also eliminated the need for a shape-based worm identification algorithm, and allowed each frame to be analyzed independently. […]

Experiment [1] concerns P. redivivus females. Description: Attraction assay, Panagrellus redivivus females. Format: in vivo. Here is the method:
as §1, §2, §3
OP50 E. coli is grown on a standard 5 cm agar plate (made with standard Nematode Growth Medium). The bacterial lawn is 16 mm in diameter and is grown overnight at 20C before being used in trials. Two 4-mm spots ([…]) were placed on opposite sides of the bacterial lawn (using a transparent template to guide spot placement) and several minutes elapsed for the liquid to settle in before placing nematodes down on the assay. Recording began immediately upon worm placement. […] of the control was placed on one side of the lawn and […] of the experimental cue was placed on the other side of the lawn, changing the location of the cue throughout trials, between left/right and top/bottom to avoid bias. Nematodes were isolated by gender at the L4 stage the day before being used in trials as developed adults. Five worms were each placed at two points equidistant from the foci of the scoring region (ten total). Trials were recorded for 20 minutes and frames were collected for analysis at 1 frame per second. Results were averaged from at least three different trials. For every nematode species in this study, the inventors tested different total number of worms (using water in both scoring regions) to determine the minimum number of worms necessary for consistent unbiased results over a 20-minute trial. […]
as §4

For experiment [2], the system named is P. redivivus females. Description: Repulsion scoring by behavioral response (immediate exit of the conditioned region). Format: in vivo, Panagrellus redivivus. As to conditions: high concentrations. The source says:
The inventors thus used a separate method for scoring repulsion that focused on behavioral response rather than time spent in each region.

Experiment [3] concerns males from many of the nematode species tested. Nature of the experiment: Attraction assay, males of different nematode species. As to conditions: 1 nM, 1 μM and 1 mM tested. Format: in vivo. Here is the method:
FIG. 5A depicts, in accordance with an embodiment herein, that ascarosides mediate behavior of nematode species from diverse generas. Species that were amenable to test in the attraction assay (sufficient movement, unbiased direction, reproducible controls) were scored for attraction or repulsion toward three concentrations (1 mM, 1 μM, and 1 nM: from left to right) of 13 different ascarosides. Pvalues were determined using the Student's t-test with a P<0.05. The score “0” represents any findings where P>0.05.
(§5) To investigate the biological function of the ascarosides identified in the MS screen, the inventors used a bioassay (FIGS. 1A-1C) to measure attraction of different nematode species to a wide range of ascaroside concentrations (1 nM, 1 μM, and 1 mM). For these bioassays, nematode species had to fulfill several requirements, such as sufficient movement on bacterial lawns, low tendency to aggregate, easy to grow, and generally reproducible locomotive behavior. This study was limited to a survey of males from different species, because males tended to move much more evenly across our bioassay lawn than females and hermaphrodites (with the exception of P. redivivus females, which move well and were therefore in this study.)
OP50 E. coli is grown on a standard 5 cm agar plate (made with standard Nematode Growth Medium). The bacterial lawn is 16 mm in diameter and is grown overnight at 20C before being used in trials. Two 4-mm spots ([…]) were placed on opposite sides of the bacterial lawn (using a transparent template to guide spot placement) and several minutes elapsed for the liquid to settle in before placing nematodes down on the assay. Recording began immediately upon worm placement. […] of the control was placed on one side of the lawn and […] of the experimental cue was placed on the other side of the lawn, changing the location of the cue throughout trials, between left/right and top/bottom to avoid bias. Nematodes were isolated by gender at the L4 stage the day before being used in trials as developed adults. Five worms were each placed at two points equidistant from the foci of the scoring region (ten total). Trials were recorded for 20 minutes and frames were collected for analysis at 1 frame per second. Results were averaged from at least three different trials. For every nematode species in this study, the inventors tested different total number of worms (using water in both scoring regions) to determine the minimum number of worms necessary for consistent unbiased results over a 20-minute trial. The total number of worms used in the multiple species assays depending on that species' optimal parameters. 10 worms were for P. redivivus males and females, 20 worms were used for C. elegans males, O. dolichuridae males, and C. sp7 males and 14 worms were used forS. glaseri males.
A video camera attached to the microscope produces a digital video stream, which is then analyzed. The ratio of time the average worm spends in each region of interest is calculated for every trial. For ease of implementation, it was assumed that all worms in a single experiment are roughly the same size. Thus, worm pixels were counted instead of whole worms, allowing the inventors to take into account fractions of a worm in the region of interest. It also eliminated the need for a shape-based worm identification algorithm, and allowed each frame to be analyzed independently. The inventors applied a band-pass filter to each frame to eliminate the effect of uneven lighting and also accentuate the worms against the background. The worm was then identified after thresholding the filtered image. Throughout each experiment, the inventors know the locations and sizes of the regions of interest. Through the filtering described above, the inventors know which pixels are occupied by worms and which ones are not. They are then able to calculate the ratio of worm-pixels to all pixels inside the region of interest to produce the worm- occupancy ratio. […]

The test system of another experiment is asthmatic mice. Description: Ovalbumin induction of asthma, allergic airway inflammation in mice. It counts as in vivo. As to conditions: for eosinophils / mucus hyper-production / cellular infiltration into the lungs: asthmatic mice; for cellular infiltration into the lungs: lung histology. The procedure: FIG. 7A depicts, in accordance with an embodiment herein, sensitization with OVA+ Control/Alum (N=3) and sensitization with OVA+NES/Alum (N=3), in Nippostrongylus brasiliensis. The experimental model is ovalbumin inducation of asthma. […] No worm, living or dead, is introduced into the asthma model. Furthermore, proteins were eliminated by denaturing at 100C for 25 minutes, and filtering through a 10 kDa filter. FIGS. 7B-7D depict the histology of mice treated with NES.
The effects of ascarosides are examined for an allergic airway inflammation.

The next experiment deals with C. elegans. As to conditions: cited from earlier work.
The test system of experiment [4] is C. elegans males. To be noted: reduced attraction at high concentrations; cited from earlier work.
Experiment [5] has as its system C. elegans males. Description: Attraction assay, C. elegans males. To be noted: tested at 1 nM, 1 μM and 1 mM. Format: in vivo, Caenorhabditis elegans. The procedure: as §5
OP50 E. coli is grown on a standard 5 cm agar plate (made with standard Nematode Growth Medium). […] Trials were recorded for 20 minutes and frames were collected for analysis at 1 frame per second. […]
as §4

The mark [6] stands for this setting: any of the tested concentrations.

As to `CC1O[C@@H](O[C@H](C)CCCCC(=O)O)C(O)C[C@H]1O` (single isomer, unassigned; (-)) [ascr #1, (−) 6-(3,5-dihydroxy-6-methyltetrahydropyran-2-yloxy) heptanoic acid], the “male attraction (Attraction Bioassay)” value with P. redivivus males (P. redivivus males) is listed as “strongly attracted; also recorded: full male attraction”. Also, the female attraction entry with P. redivivus females [1] (setting [6]) is listed as “not attracted”. In addition, the female attraction entry in the experiment with P. redivivus females [1] (between 100 and 106 fmol, FIG. 2E) is reported as “not attracted”. Moreover, the “female repulsion, semi-automated scoring method” value in the experiment on P. redivivus females [1] (time spent in each region) was “not significantly repelled”. In the experiment with P. redivivus females [2], the “female repulsion, immediate exit of the conditioned region before entering a full worm's length” value is on record as “significantly repelled”. Also, in experiment [3], the attraction of males entry is on record as “attracted”. For the same compound, in the experiment on asthmatic mice, the eosinophils result is “reduction”, the mucus hyper-production result is on record as “decreased” and the “cellular infiltration into the lungs” value is “decreased”. Moreover, the eosinophils result with asthmatic mice (listed as Ascr #1) was “some effect”. In addition, the “induction of diapause (dauer)” value in the experiment with C. elegans was “weakly induces diapause”.

For `CC(=O)CCCC(C)OC1OC(C)C(O)CC1O` (centres unmarked) [ascr #2], the “male response to hermaphroditic sex pheromones” value in the experiment on C. elegans males [4] is listed as “biphasic response”.

Take `CC1O[C@@H](O[C@H](C)CCCC/C=C/C(=O)O)[C@@H](O)C[C@H]1O` (some centres unmarked) [ascr #3]: the attraction of males result in experiment [3] was “attracted”. In the experiment on asthmatic mice, the eosinophils entry was “reduction; also recorded: some effect”, the mucus hyper-production entry was “decreased” and the “cellular infiltration into the lungs” value is listed as “decreased”. The “male response to hermaphroditic sex pheromones” value in the experiment with C. elegans males [4] is reported as “biphasic response”.

For `C[C@H](CC/C=C/C(=O)O)O[C@@H]1O[C@@H](C)[C@H](O)C[C@H]1O` [ascr #7], the male attraction result in the experiment on P. redivivus males (1 mM and 1 μM) is recorded as “attracted”. In addition, the “male response (attraction)” value with C. elegans males [5] is reported as “only respond to 1 mM”. Also, the attraction of males entry in experiment [3] is “attracted”. Moreover, in the experiment on asthmatic mice, the eosinophils entry is listed as “reduction; also recorded: markedly reduced”, the mucus hyper-production entry is recorded as “decreased” and the “cellular infiltration into the lungs” value is given as “decreased”. The “effect on allergic airway inflammation” value with asthmatic mice (synthesized ascarosides tested individually, FIG. 10B) is given as “inhibitory effect”.

As to `C[C@H](CC/C=C/C(=O)Nc1ccc(C(=O)O)cc1)O[C@@H]1O[C@@H](C)[C@H](O)C[C@H]1O` [ascr #8], the attraction of males result in experiment [3] is “attracted”.

Regarding `CC1O[C@@H](O[C@H](C)CCC(=O)O)[C@@H](O)C[C@H]1O` (some centres unmarked) [ascr #9], the attraction of males result in experiment [3] is reported as “attracted”.

Turning to `CC1O[C@@H](O[C@H](C)CCCCCCC(=O)O)[C@@H](O)C[C@H]1O` (some centres unmarked) [ascr #10], the male attraction result in the experiment with P. redivivus males (very high, nonphysiological concentration of 1 mM) is “some attraction”. Also, the female attraction entry with P. redivivus females [1] (setting [6]) was “do not respond”. Moreover, the attraction of males entry in experiment [3] is reported as “attracted”.
